Test results taken from US3959272A, “Aminoalkyl esters of 2-anilino-nicotinic acids” (Societe Anonyme dite: Hexachime, priority 1972, dated 1976).

What was measured:
[1] = type: in vivo, dog; details: 48 mg/kg intravenously at 1 mg/kg/minute; two dogs
Protocol: (§1) The compounds under test were administered to rats or mice intraperitoneally. The loss of the righting reflex was noted and the duration of sleep measured objectively with reference to the loss of the righting reflex. The compounds under test were also administered by slow perfusion to dogs. The moment when the dog fell asleep and the duration of sleep was noted.
Two dogs each weighing 11 kg. received intravenously 48 mg/kg of the product of Example 1 perfused at the rate of 1 mg/kg/minute. Sleep appeared at the end of 25 minutes and lasted for 15 minutes. The animals were sleepy for 1 hour after the end of the perfusion.

[2] = Action on the activity of noradrenaline in dogs; details: dog, in vivo
[3] = Hypnotic activity in rats or mice (loss of righting reflex); type: in vivo; details: for % of sleeping animals: mice
Protocol: as §1

[4] = Cardiovascular parameters: intact dogs; type: in vivo, dog; details: for Average pressure / Diastolic pressure / Systolic pressure: in % (unit assumed)
Protocol: (§2) Unsorted dogs of either sex weighing 8 to 17 kg and anaesthetised by chloralose in solution in polyethylene glycol 300 (0.12 g/kg) were respirated artificially using a Bird pump (Mark 7). The carotid arterial blood pressure was measured with the aid of a Statham P 23 dB device. The left ventricular pressure is measured with the same device connected by a supple catheter introduced by the femoral artery and pushed into the left ventricle. The cardiac rhythm is measured from the signals of the carotid pressure. The myocardial contractile force is measured using a strain gauge (Apelab) attached to the right ventricle. All the parameters are recorded on a Beckman polygraph. Two series of dogs are used to test the cardiovascular activity: 5 dogs atropinised (1 mg/kg intravenously) and bivagotomised; and a second series of 4 intact dogs. The product of Example 1 was injected through the saphena vein and the duration of the injection was 2 minutes.
The following Table IX gives the variations of the parameters recorded and their significance according to the t test (* p<0.05; ** p<0.01; *** p<0.001).

[5] = Acute toxicity in the mouse; details: in vivo
[6] = Escape test; type: in vivo; details: Mus musculus, ip, 0.5 h, read-out: Percentage inhibition (number of attempts to escape)
Protocol: Groups of 8 mice were placed in sub groups of 4 in an enclosure from which they could escape by an inclined plane. The number of attempts to escape during 5 minutes were counted half an hour after intraperitoneal administration of the compound under test.

[7] = Solubility in water; type: physicochemical
[8] = Analgesic activity: Randall and Selitto's test (beer yeast paw, pain threshold); type: in vivo, rat
Protocol: This activity was measured by Siegmund's test in mice and Randall and Selitto's test in the rat. Groups of ten male rats each weight 120 to 140 g received by subcutaneous plantar injection 0.05 ml of a 5% aqueous suspension of beer yeast. 2 Hours after this treatment they received the compound under test orally and 1 hour after administration of this compound the paw which had been injected and the contralateral paw were subjected to increasing pressure. The appearance of the pain threshold was noted.

[9] = Antagonism of convulsions produced by cardiazole; type: in vivo; details: Mus musculus, ip, read-out: Percentage inhibition of tonic convulsions
Protocol: Groups of 6 mice received the compound under test 30 minutes before introperitoneal injection of 160 mg/kg of cardiazole. The action of the compound under test on the tonic convulsion phase was observed.

[10] = Chronic toxicity in beagle dogs, 3 months; type: in vivo, beagle dog; details: 150 mg/kg each day for 3 months
Protocol: Six beagle dogs (3 male and 3 female) received each day for 3 months 150 mg/kg of the product of Example 1.

[11] = Cardiovascular parameters: atropinised and bivagotomised dogs; type: in vivo, dog
Protocol: as §2
The following Table VIII gives the variations of the recorded parameters and their significance according to the t test (* p< 0.05; ** p<0.01).

[12] = 16 mg/kg intravenously, 4 dogs, ** p<0.01
[13] = 5 mg/kg intravenously, 5 dogs, * p<0.05
[14] = 8 mg/kg intravenously, 5 dogs, ** p<0.01

**Q.** Which duration of sleep [1] does the source give for `Cc1cccc(Nc2ncccc2C(=O)OCCN2CCOCC2)c1C` [Example 1, β-Morpholino ethyl nixylate] here?
**A.** 15 min

**Q.** And the “time animals were sleepy after the end of the perfusion” value [1]?
**A.** 1 h

**Q.** And the “time at which sleep appeared” value [1]?
**A.** 25 min

**Q.** And the “action on the activity of noradrenaline” value [2]?
**A.** without action on the activity of noradrenaline

**Q.** And the “% of sleeping animals” value ([3]; 50 mg/kg intraperitoneally)?
**A.** 0%

**Q.** And the “% of sleeping animals” value ([3]; 75 mg/kg intraperitoneally)?
**A.** 46%

**Q.** And the “% of sleeping animals” value ([3]; 100 mg/kg intraperitoneally)?
**A.** 57%

**Q.** And the “% of sleeping animals” value ([3]; 125 mg/kg intraperitoneally)?
**A.** 84%

**Q.** What about the “% of sleeping animals” value ([3]; 200 mg/kg intraperitoneally) of the same compound?
**A.** 92%

**Q.** What about the “% of sleeping animals” value ([3]; 250 mg/kg intraperitoneally) of the same compound?
**A.** 100%

**Q.** What about the sleep caused ([3]; only this product of those tested) of the same compound?
**A.** caused sleep

**Q.** What about the “Alteration in cardiac rhythm” value ([4]; 1 mg/kg intravenously, 4 dogs) of the same compound?
**A.** -1 beats per minute

**Q.** What about the “Duration of the hypotension” value ([4]; 1 mg/kg intravenously, 4 dogs) of the same compound?
**A.** 30

**Q.** And the Average pressure ([4]; 1 mg/kg intravenously, 4 dogs)?
**A.** -9±5.2

**Q.** And the Diastolic pressure ([4]; 1 mg/kg intravenously, 4 dogs)?
**A.** -10±5.7

**Q.** And the Systolic pressure ([4]; 1 mg/kg intravenously, 4 dogs)?
**A.** -8±4.6

**Q.** What about the “Alteration in cardiac rhythm” value ([4]; 4 mg/kg intravenously, 4 dogs) of the same compound?
**A.** -15 beats per minute

**Q.** What about the “Duration of the hypotension” value ([4]; 4 mg/kg intravenously, 4 dogs) of the same compound?
**A.** 60

**Q.** What about the Diastolic pressure ([4]; 4 mg/kg intravenously, 4 dogs, * p<0.05) of the same compound?
**A.** -18±5.5

**Q.** What about the Average pressure ([4]; 4 mg/kg intravenously, 4 dogs) of the same compound?
**A.** -16±5.4

**Q.** What about the Systolic pressure ([4]; 4 mg/kg intravenously, 4 dogs) of the same compound?
**A.** -15±5.3

**Q.** What about the “Alteration in cardiac rhythm” value ([4]; 8 mg/kg intravenously, 2 dogs) of the same compound?
**A.** -22 beats per minute

**Q.** What about the Average pressure ([4]; 8 mg/kg intravenously, 2 dogs) of the same compound?
**A.** -38

**Q.** And the Diastolic pressure ([4]; 8 mg/kg intravenously, 2 dogs)?
**A.** -41

**Q.** What about the Systolic pressure ([4]; 8 mg/kg intravenously, 2 dogs) of the same compound?
**A.** -34

**Q.** And the “Alteration in cardiac rhythm” value ([4]; 16 mg/kg intravenously, 4 dogs)?
**A.** -37 beats per minute

**Q.** What about the “Duration of the hypotension” value ([4]; 16 mg/kg intravenously, 4 dogs) of the same compound?
**A.** > 50

**Q.** And the Average pressure [4, 12]?
**A.** -54±4.3

**Q.** What about the Systolic pressure [4, 12] of the same compound?
**A.** -45±7

**Q.** And the Diastolic pressure ([4]; 16 mg/kg intravenously, 4 dogs, *** p<0.001)?
**A.** -57±3.8

**Q.** What about the “biphasic action on the recorded parameters” value ([4]; different dosages) of the same compound?
**A.** No biphasic action on the recorded parameters was observed

**Q.** And the LD50 at 168 h ([5]; ip)?
**A.** 700 mg/kg

**Q.** And the LD50 at 168 h ([5]; iv)?
**A.** 110 mg/kg

**Q.** And the LD50 at 168 h ([5]; po)?
**A.** 1600 mg/kg

**Q.** What about the change in vivo at 8 mg/kg ([6]; 8 mg/kg intraperitoneally) of the same compound?
**A.** 6%

**Q.** And the change in vivo at 16 mg/kg ([6]; 16 mg/kg intraperitoneally)?
**A.** 3%

**Q.** And the change in vivo at 32 mg/kg ([6]; 32 mg/kg intraperitoneally)?
**A.** -8%

**Q.** What about the change in vivo at 64 mg/kg ([6]; 64 mg/kg intraperitoneally) of the same compound?
**A.** -51%

**Q.** And the change in vivo at 128 mg/kg ([6]; 128 mg/kg intraperitoneally)?
**A.** -100%

**Q.** And the solubility in water ([7]; dihydrochloride)?
**A.** very soluble

**Q.** What about the solubility in water ([7]; monohydrochloride) of the same compound?
**A.** sparingly soluable in water

**Q.** What about the “percentage increase of pain threshold” value ([8]; with yeast, 8 mg/kg orally) of the same compound?
**A.** 15%

**Q.** And the “percentage increase of pain threshold” value ([8]; with yeast, 16 mg/kg orally)?
**A.** 68%

**Q.** And the “percentage increase of pain threshold” value ([8]; with yeast, 32 mg/kg orally)?
**A.** 90%

**Q.** And the “percentage increase of pain threshold” value ([8]; with yeast, 64 mg/kg orally)?
**A.** 83%

**Q.** And the “percentage increase of pain threshold” value ([8]; with yeast, 128 mg/kg orally)?
**A.** 120%

**Q.** And the “percentage increase of pain threshold” value ([8]; with yeast, 256 mg/kg orally)?
**A.** 161%

**Q.** What about the “percentage increase of pain threshold” value ([8]; without yeast, 8 mg/kg orally) of the same compound?
**A.** 37%

**Q.** And the “percentage increase of pain threshold” value ([8]; without yeast, 16 mg/kg orally)?
**A.** 29%

**Q.** What about the “percentage increase of pain threshold” value ([8]; without yeast, 32 mg/kg orally) of the same compound?
**A.** 51%

**Q.** What about the “percentage increase of pain threshold” value ([8]; without yeast, 64 mg/kg orally) of the same compound?
**A.** 72%

**Q.** And the “percentage increase of pain threshold” value ([8]; without yeast, 128 mg/kg orally)?
**A.** 101%

**Q.** And the “percentage increase of pain threshold” value ([8]; without yeast, 256 mg/kg orally)?
**A.** 126%

**Q.** What about the inhibition in vivo at 8 mg/kg ([9]; 8 mg/kg intraperitoneally) of the same compound?
**A.** 0%

**Q.** And the inhibition in vivo at 16 mg/kg ([9]; 16 mg/kg intraperitoneally)?
**A.** 12%

**Q.** And the inhibition in vivo at 32 mg/kg ([9]; 32 mg/kg intraperitoneally)?
**A.** 21%

**Q.** What about the inhibition in vivo at 64 mg/kg ([9]; 64 mg/kg intraperitoneally) of the same compound?
**A.** 62%

**Q.** What about the inhibition in vivo at 128 mg/kg ([9]; 128 mg/kg intraperitoneally) of the same compound?
**A.** 95%

**Q.** What about the “biochemical and hematological characteristics” value [10] of the same compound?
**A.** No modification attributable to the treatment was observed

**Q.** And the “histological examination of the organs” value [10]?
**A.** normal

**Q.** And the mortality [10]?
**A.** No mortality was observed

**Q.** What about the “weights of the dogs” value [10] of the same compound?
**A.** remained normal

**Q.** What about the Average blood pressure ([11]; 1 mg/kg intravenously, 5 dogs) of the same compound?
**A.** -4±2%

**Q.** And the Diastolic blood pressure ([11]; 1 mg/kg intravenously, 5 dogs)?
**A.** -4±2%

**Q.** And the Systolic blood pressure ([11]; 1 mg/kg intravenously, 5 dogs)?
**A.** -3,3±3%

**Q.** What about the Average blood pressure ([11]; 2 mg/kg intravenously, 2 dogs) of the same compound?
**A.** -12%

**Q.** And the Diastolic blood pressure ([11]; 2 mg/kg intravenously, 2 dogs)?
**A.** -12%

**Q.** And the “Duration of reduced blood pressure” value ([11]; 2 mg/kg intravenously, 2 dogs)?
**A.** 30

**Q.** What about the Systolic blood pressure ([11]; 2 mg/kg intravenously, 2 dogs) of the same compound?
**A.** -12%

**Q.** What about the “Change in cardiac rhythm” value ([11]; 5 mg/kg intravenously, 5 dogs) of the same compound?
**A.** -8 to -20 beats per minute

**Q.** And the Diastolic blood pressure [11, 13]?
**A.** -15±4%

**Q.** What about the Systolic blood pressure [11, 13] of the same compound?
**A.** -13±3%

**Q.** And the Average blood pressure ([11]; 5 mg/kg intravenously, 5 dogs, ** p<0.01)?
**A.** -14±3%

**Q.** And the “Change in cardiac rhythm” value ([11]; 8 mg/kg intravenously, 5 dogs)?
**A.** -8 to -20 beats per minute

**Q.** What about the Average blood pressure [11, 14] of the same compound?
**A.** -26±5%

**Q.** What about the Diastolic blood pressure [11, 14] of the same compound?
**A.** -27±5%

**Q.** What about the Systolic blood pressure [11, 14] of the same compound?
**A.** -24±5%

**Q.** And the Average blood pressure ([11]; 16 mg/kg intravenously, 2 dogs)?
**A.** -31%

**Q.** And the “Change in cardiac rhythm” value ([11]; 16 mg/kg intravenously, 2 dogs)?
**A.** -18 to -24 beats per minute

**Q.** And the Diastolic blood pressure ([11]; 16 mg/kg intravenously, 2 dogs)?
**A.** -32%

**Q.** And the “Duration of reduced blood pressure” value ([11]; 16 mg/kg intravenously, 2 dogs)?
**A.** > 30

**Q.** And the Systolic blood pressure ([11]; 16 mg/kg intravenously, 2 dogs)?
**A.** -30%

**Q.** And the blood pressure ([11]; doses of 4 mg/kg and above, during the injection or one to two minutes afterwards)?
**A.** reduction in blood pressure

**Q.** And the contractile force ([11]; during the injection or one to two minutes afterwards, 2 dogs only)?
**A.** slight increase in the contractile force

**Q.** What about the “increase in the cardiac rhythm” value ([11]; during the injection or one to two minutes afterwards, according to the dose) of the same compound?
**A.** 2-16 beats per minute

**Q.** And the “left ventricular blood pressure” value ([11]; measured in two dogs only)?
**A.** followed the variations of the arterial blood pressure

**Q.** And the hypotension ([11]; two minutes after the injection)?
**A.** hypotension proportional to the dose injected
